# What was measured:
# [1] = tested on: mice subjected to fear conditioning; assay: Porsolt test after fear conditioning (Example 1, Experiment 3); assay type: in vivo, C57BL/6 mice; conditions: FC mice, IN post-treatment; cotinine p<0.01, combination p<0.05
# Method: Mice were treated via IN 2 hours after fear conditioning and continuously until euthanasia.
# Mice (n=5-6/condition) received daily treatments with 1. PBS (phosphate buffer saline, pH 7.4) via intranasal (2×12 μl/nostril), 2. Cotinine dissolved in PBS via intranasal (Cot IN, 10 mg/ml, 2×12 μl/nostril); 3. Cotinine+krill oil both dissolved in PBS via intranasal (Cot IN, 10 mg/ml+KO, 48 mg/ml, 2×12 μl/nostril).
# Contextual FC was performed as described. The conditioning chamber used is surrounded by a sound-attenuating box with a camera connected to freeze frame software (MED Associates Inc.), also equipped to provide a background white noise (72 dB). The conditioning chamber (33 cm×20 cm×22 cm) contains in one side a speaker and in the opposite slide has a 24V light. The chamber has a 36-bar insulated shock grid floor. […] Freezing behavior that is defined as the absence of all movement except the one needed for breathing was assessed using the FreezeView Software (MED Associates Inc.).
# This test is used to measure the antidepressant effects of drugs, and consists in placing each mouse in a transparent cylinder filled with water at room temperature (RT). […] The immobility time will be recorded during a 15-min and a next day 5-min trial. The time spent by each mouse immobile will be recorded.
# restrained mice = assay: Forced swim test after chronic restraint stress (Example 2); assay type: in vivo, C57BL/6 male mice; conditions: IN cotinine post-treatment, p<0.01
# Method: Mice between 2-3 months of age after one week of acclimatization were randomly divided into two groups. Stressed mice were subjected to restraint stress. Control (non-restrained) mice were allowed to move freely during this period. After the stress exposure period, mice were divided into three experimental groups: 1) Non-restrained mice treated with vehicle (PBS, pH 7.4) serving as unstressed controls (n=8); 2) Restrained mice (RS) treated with vehicle (n=8); 3), RS mice treated with 24 μl of a cotinine solution (10 mg/ml in PBS, pH 7.4) via intranasal route of administration (n=6). Treatments were administered daily until euthanasia. After two weeks of treatments mice were behaviorally tested and euthanized (FIG. 10) Intranasal delivery was performed as previously described (Hanson and Frey, 2007). Mice at 2-3 months of age were hand-restrained, positioned in a supine position, and administered two 12 μl drops of cotinine solution (10 mg/ml in PBS), or PBS alone, into both nares. Mice were given an extra 12 μl treatment drop if the mouse expelled out the solution. Mice were kept in the supine posture for 5 seconds after delivery to facilitate the delivery. The administration was performed daily until euthanasia. […] Mice were placed in a transparent cylinder filled with water at 25° C. for 5 min and behavior was recorded. […]
# conditioned mice = assay: Fear retention and extinction tests after fear conditioning (Example 4); assay type: in vivo, Mice C57BL/6
# Method: Three-month-old mice (n=5-6/condition) were weighed and assigned to treatment groups. Mice were treated with vehicle or drugs, starting two h after fear conditioning and daily after behavioral testing until euthanasia. Mice received daily treatments with 1. PBS (phosphate buffer saline, pH 7.4) via intranasal; 2. Cotinine (10 mg/ml) dissolved in PBS via intranasal (IN Cot, 24 μl); 3. Krill oil dissolved in PBS, via intranasal (48 mg/ml, 24 μl); 4. Cotinine (10 mg/ml) plus krill oil dissolved in PBS, via intranasal (48 mg/ml, 24 μl); 5.
# For intranasal delivery, mice were hand-restrained, placed in a supine position, and given two 12 μl drops of cotinine solutions, or PBS, into both nares consecutively. Mice were given an extra 12 μl treatment drop if the subject forcibly ejected or sneezed out the solution. Mice were held supine for 5-10 seconds after delivery to ensure that all fluid was inhaled.
# Contextual fear conditioning was performed as described. The conditioning chamber used (33 cm×20 cm×22 cm) is surrounded by a sound-attenuating box with a camera connected to freeze frame software (MED Associates Inc.) and equipped to provide a background white noise (72 dB). The conditioning chamber contains in one side a speaker and in the opposite side has a 24V light, and a 36-bar insulated shock grid floor. To perform this test, each mouse was placed in the conditioning chamber for 2 min before the onset of a discrete tone (a sound that will last 30 seconds (sec) at 2,800 Hz and 85 dB). In the last two seconds of this tone, mice received a foot shock of 1 mA, kept in the conditioning chamber for 2 min and returned to their home cages. Between trials, the chamber was sanitized with 70% ethanol and dried. Freezing behavior was defined as the absence of all movement except the one needed for breathing was assessed using the FreezeView Software (MED Associates Inc.).
# Fear retention and extinction experiments were performed as described, using the same cohorts of mice and reproduced in two separate experiments. To assess fear retention and mice underwent re-exposure to the conditioning chamber in the absence of an unconditioned stimulus (shock or auditory cues) for 3 minutes (min) in daily extinction trials. Freezing behavior was measured using the ANY-Maze® software (Stoelting CO, USA). The extinction trials were continued until the decrease in freezing behavior reached a stable level.
smiles,measurement,setting,value
"CN1C(=O)CC[C@H]1c1cccnc1 [Cotinine, (5S)-1-methyl-5-(3-pyridyl) pyrrolidin-2-one]",depressive-like behavior (freezing) in the Porsolt test,[1],significant decrease in depressive-like behavior
same,immobility in the forced swim test,restrained mice,significantly lower than PBS-treated restrained mice
same,freezing behavior during daily extinction trials (speed of fear extinction),"conditioned mice; 5 days of extinction, daily treatment",faster extinction of fear
same,day on which maximal decrease in freezing was reached,conditioned mice; same time as mice treated with PBS,4 days
same,fear reaction (freezing) in the retention test,"conditioned mice; treatment started 2 h after FC, IN cotinine 10 mg/ml, IN KO 48 mg/ml, oral sertraline 3 mg/kg",significant decrease in the fear reaction in the retention test
